Test systems include SF-268 CNS; MOLT-4 leukemia; UACC-62 melanoma; OVCAR-4 ovarian; U251 CNS; COLO 205 colon; SR leukemia; SN12C renal; A549 NSCLC; UO-31 renal.
Common to all, as to test: growth of human tumour cells (NCI), 48 h

Each structure is given as a SMILES string.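 Step 1: Grow cells in 96-well plates. Step 2: Expose to compound for 48 hours at 5 concentrations. Step 3: Interpolate endpoints linearly; if unreached, use highest concentration. TGI denotes the concentration required for complete inhibition of growth.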 Where a SMILES comes first, the peptide text is derived from it. [ ]: non-standard residue; d: D form. The star is where a group is joined. Tyr(3-Br) = N[C@@H](Cc1ccc(O)c(Br)c1)C(=O)O; Boc = CC(C)(C)OC(=O)* Bounds are passed on as bounds.

Our source for the TGI values is PubChem BioAssay (NCI).

For `COc1cc(C)cc2c1c(=O)c1ccccc1n2C`, the TGI with SF-268 CNS was over 100 µM; in the test with MOLT-4 leukemia, over 100 µM; in the test with UACC-62 melanoma, 62.5 µM; in the test on OVCAR-4 ovarian, over 100 µM; with U251 CNS it was 96.1 µM; in the test with COLO 205 colon it was 79.1 µM. Moreover, the TGI in the test on SR leukemia was 78.7 µM; in the test with SN12C renal, over 100 µM; in the test on A549 NSCLC it was over 100 µM.

As for `O=C(N/N=C/c1ccc([N+](=O)[O-])o1)c1ccc(C(=O)N/N=C/c2ccc([N+](=O)[O-])o2)cc1`, the TGI with SF-268 CNS, with MOLT-4 leukemia, in the test with UACC-62 melanoma, with OVCAR-4 ovarian, in the test with UO-31 renal and in the test on U251 CNS was over 100 µM in each case. Further, the TGI was 94.7 µM in the test on COLO 205 colon, over 100 µM in the test on SR leukemia, over 100 µM in the test on SN12C renal and over 100 µM in the test with A549 NSCLC.

In the case of `Cc1nc2c(nc1C)-c1c(c3c(n1C)C(=O)CCC3)C(=O)C2=O`, the TGI came to 1.22 µM in the test on SF-268 CNS; 1.5 µM in the test on UACC-62 melanoma; 0.279 µM in the test with OVCAR-4 ovarian; 1.29 µM in the test on UO-31 renal; 0.533 µM in the test with U251 CNS; 3.46 µM in the test with COLO 205 colon. Besides, the figures for the TGI with SR leukemia, in the test on SN12C renal and with A549 NSCLC were 0.769 µM, 0.52 µM and 4.56 µM, respectively.

With `Cc1cc(N=Nc2c(O)ccc3ccccc23)ccc1N=Nc1cccc([N+](C)(C)C)c1`, the TGI in the test with SF-268 CNS was 57.1 µM; with MOLT-4 leukemia it was over 100 µM; with UACC-62 melanoma, over 61.6 µM; with OVCAR-4 ovarian it was over 100 µM; with UO-31 renal, 29.7 µM; in the test on U251 CNS it was 14.1 µM. Also, the TGI in the test with SR leukemia is over 100 µM; with SN12C renal it was over 80 µM; in the test on A549 NSCLC, over 52.2 µM.

As for `CCN(CC)CCNC(=O)c1ccc(I)cc1`, the TGI with SF-268 CNS, in the test on MOLT-4 leukemia, with OVCAR-4 ovarian, in the test with UO-31 renal, in the test on U251 CNS and with COLO 205 colon was over 100 µM in each case. Further, the TGI in the test on SR leukemia, with SN12C renal and in the test on A549 NSCLC was over 100 µM throughout.

In the case of `Cn1c(-c2cccs2)cc(-c2cccs2)c1-c1ccco1`, the TGI in the test with SF-268 CNS was over 100 µM; in the test with MOLT-4 leukemia, over 100 µM; in the test with UACC-62 melanoma, over 100 µM; with OVCAR-4 ovarian it was 5.07 µM; in the test with UO-31 renal it was over 100 µM; with U251 CNS, over 100 µM. Moreover, the TGI in the test on COLO 205 colon is over 77.8 µM; with SR leukemia it was over 100 µM; in the test on SN12C renal it was over 100 µM; in the test with A549 NSCLC it was over 100 µM.

With `CCOC(=O)c1sc(N/N=C2\NC(=O)/C(=C/c3ccc([N+](=O)[O-])cc3)S2)nc1C`, the TGI is over 100 µM with SF-268 CNS; 31.1 µM with MOLT-4 leukemia; 73.4 µM in the test with UACC-62 melanoma; over 100 µM in the test on OVCAR-4 ovarian; 47 µM in the test with UO-31 renal; over 100 µM with U251 CNS. In addition, the TGI in the test with COLO 205 colon is 48.5 µM; in the test with SR leukemia, 29.4 µM; in the test on SN12C renal, 88.2 µM; in the test with A549 NSCLC, over 100 µM.

As to `COc1cc(C2SC(N)=Nc3c2c(C)nn3C(=O)c2ccccc2O)ccc1O` (stereo not given), the TGI in the test with SF-268 CNS was over 10 µM; with MOLT-4 leukemia, over 10 µM; in the test with UACC-62 melanoma, over 10 µM; with OVCAR-4 ovarian, over 6.37 µM; with UO-31 renal, over 10 µM; with U251 CNS, over 10 µM. Besides, the TGI in the test on COLO 205 colon is over 10 µM; with SR leukemia it was over 2.73 µM; with SN12C renal, over 10 µM; in the test on A549 NSCLC it was over 10 µM.

`N#CC(=C1CCCCC1)c1nc2ccccc2o1`: the TGI with SF-268 CNS, in the test with MOLT-4 leukemia, in the test on UACC-62 melanoma, in the test with OVCAR-4 ovarian, in the test with UO-31 renal and with U251 CNS was over 100 µM in each case. Also, the TGI with COLO 205 colon was 33.7 µM; with SR leukemia, over 100 µM; in the test with SN12C renal, over 100 µM; in the test on A549 NSCLC, over 100 µM.

Regarding `O=C1NC(N2CCCCC2)=N/C1=C\c1cccs1`, the TGI with SF-268 CNS, in the test on MOLT-4 leukemia, in the test on UACC-62 melanoma, with OVCAR-4 ovarian, in the test with UO-31 renal and with U251 CNS was over 100 µM each time. Further, the TGI with COLO 205 colon, in the test with SR leukemia, in the test with SN12C renal and in the test on A549 NSCLC was over 100 µM in each case.

As for `COC(=O)[C@H](Cc1ccc(O)c(Br)c1)NC(=O)[C@H](Cc1ccc(O)cc1)NC(=O)OC(C)(C)C` (Boc-Tyr-[Tyr(3-Br)]-OMe), the TGI in the test with SF-268 CNS, in the test with MOLT-4 leukemia, in the test with OVCAR-4 ovarian, in the test with UO-31 renal, with COLO 205 colon and in the test with SR leukemia was over 100 µM throughout. Moreover, the TGI in the test with SN12C renal and in the test with A549 NSCLC was over 100 µM throughout.

Turning to `c1ccc(P(CCP(c2ccccn2)c2ccccn2)c2ccccc2)cc1`, the TGI is over 100 µM with MOLT-4 leukemia; over 100 µM with UACC-62 melanoma; over 100 µM with OVCAR-4 ovarian; over 100 µM with UO-31 renal; over 100 µM in the test with U251 CNS; 37.8 µM in the test on COLO 205 colon. Further, the TGI in the test on SR leukemia, in the test with SN12C renal and in the test on A549 NSCLC was over 100 µM each time.

Turning to `Cc1c2c(n(CCc3ccccc3)c1C)N(C)N=C(C#N)S2(=O)=O`, the TGI in the test with SF-268 CNS, in the test on MOLT-4 leukemia, with UACC-62 melanoma, with OVCAR-4 ovarian, in the test with UO-31 renal and in the test with U251 CNS was over 100 µM in each case. Besides, the TGI in the test on SR leukemia, in the test on SN12C renal and in the test with A549 NSCLC was over 100 µM throughout.

For `C/C=C\C(CC(=O)NCCC1CN(S(=O)(=O)C(F)(F)F)c2ccccc21)CC(=O)OC` (stereo not given), the TGI with MOLT-4 leukemia was over 100 µM; with UACC-62 melanoma it was over 100 µM; with OVCAR-4 ovarian, over 100 µM; with UO-31 renal it was over 100 µM; in the test with U251 CNS, over 100 µM; in the test on COLO 205 colon, 63 µM. For the same molecule, the TGI in the test on SR leukemia and in the test with A549 NSCLC was over 100 µM throughout.
